Assay results published in patent publication US8013170B2, “Substituted pyrrolo[1,2-d][1,4]-diazonines and treatment of brain damage” (priority 2003, dated 2011).
Entries after “also recorded” stand apart in the source; their conditions may differ. Like-named read-outs stand apart in the source and are kept apart here.

Tests used:
cerebellar explants = test: Cerebellar microexplants exposed to glutamate and 3-nitropropionic acid; live neurons with neurites counted; format: cell-based, rat; settings: for numbers of cells having neurites: administered simultaneously with glutamate (1 mM) and 3-nitropropionic acid (0.5 mM), final concentrations 1-100 nM, postnatal day 8 Wistar rat cerebellar microexplants; for recovery from / prevention of glutamate-induced neurotoxicity: compound applied simultaneously, 1-100 nM
Experimental: To determine the effects of the compounds of the invention on neuronal cells in vitro, a series of studies was carried out using cerebellar explants from […]. In vitro systems are suitable for studying neuronal proliferation, neurite growth, formation of nerve bundles and effects of toxins on neural cells, effects that parallel effects observed in vivo. Thus, results of studies using in vitro cerebellar explants are predictive of effects of interventions in vivo.
In a first series of studies, effects of glutamate on cerebellar explants were determined. At physiological concentrations, glutamate is a neurotransmitter in the CNS of mammals, including humans. However, at sufficiently high concentrations, glutamate is neurotoxic, resulting in neuronal cell death. Because glutamate is a naturally occurring neurotransmitter in the CNS of mammals, including humans, and because glutamate neurotoxicity is recognized in the art as reflective of neurotoxicity in general, and including cell death and degeneration, it is a valuable tool useful for identifying and characterizing agents effective in treatment of neurodegeneration and neural cell death.
Cover slips were placed into a large Petri dish and washed in 70% alcohol for 5 minutes, then washed with Millipore H2O. The cover slips were air dried, and coated with Poly-D-Lysine (1 mg/ml stock solution in PBS, 90-100 μl) for 2 hours at 34° C.
Postnatal day 8 Wistar rats were used for the study. The rats were sacrificed and placed in ice for 1 minute, decapitated and the cerebellum removed and placed on ice. Cerebellum tissue was placed in 1 ml of 0.65% glucose-supplemented PBS (10 μl 65% stock D (+)glucose/1 ml PBS) in a large Petri dish, chopped up into smaller sections and triturated with a 1 ml insulin syringe via a 23 G (0.4 mm) needle, and then squirted back into the glucose solution in the large Petri dish. The tissue was sieved through (125 μm pore size gauze) and centrifuged (2 minutes at 60 g) twice to exchange the medium into serum-free BSA-supplemented START V medium (Biochrom, Germany). The second centrifugation step was done with 1 ml of START V medium. The microexplants were reconstituted into 500 μl of START V medium and put on ice.
Two hours after PDL-coating, the slides were washed with Millipore H2O and air dried. Each slide was placed into a small Petri dish (diameter: 35 mm) and 40 μl of START V/cell suspension was added. The tissue was incubated for 2 hours at 34° C. (settlement period). START V-medium (1 ml) was then added to the Petri dish and cultivated at 34° C. in the presence of 5% CO2 in air at 100% humidity for 48 hours.
For the study, certain explant cultures were exposed to vehicle (PBS) only. In the first study (Study 1) 10 μl of toxin 1 (L-glutamate-100 mM in Millipore water; final concentration: 1 mM) and 10 μl of toxin 2 (3-nitropropionic acid-50 mM- pH 7- in Millipore water, final concentration: 0.5 mM) was applied simultaneously with the compounds to be tested (10 mM stock solution prepared in PBS and diluted to final concentrations between 1-100 nM). […]
Neurons in the explants were then evaluated for morphology (presence of neurites) and counted as live cells per microscopic field. Four fields displaying highest cell density were counted per cover slip and the data presented as mean±standard error of the mean (SEM); n=4 each. Statistical significance was evaluated by using the non-paired Student's t-test.

[1] = rcm bond
[2] = tested on: rats exposed to hypoxic-ischemic injury (HI); test: Hypoxic-ischemic injury (modified Levine model), histological tissue damage score; format: in vivo, rat; settings: 100 pM icv, 20 μl over 20 minutes, 2 hours after hypoxic-ischemic insult; histology 5 days after injury; adult male Wistar rats; compared to vehicle treated group, p<0.001
Experimental: To determine whether compounds of the invention might prevent neuronal injury in response to stroke, cardiac arterial bypass graft surgery (CABG) or other hypoxic insults, a series of studies were carried out in rats that had been exposed to hypoxic-ischemic injury (HI). Adult rats (Wistar, 280-310 g, male) were used. The modified Levine model preparation and experimental procedures were used (Rice et al, 1981, Ann. Neurol.: 9: 131-141; Guan et al J., 1993, Cereb. Blood Flow Metab.: 13(4): 609-16). These procedures in brief, consist of an HI injury induced by unilateral carotid artery ligation followed by inhalational asphyxia in the animals with an implanted lateral ventricular cannula. A guide cannula was stereotaxically placed on the top of the dura 1.5 mm to the right of the mid-line and 7.5 mm anterior to the interaural zero plane under halothane anaesthesia. […]
Coronal sections 8 μm in thickness were cut from the striatum, cerebral cortex and hippocampus and were stained with thionin and acid fuchsin. The histological outcome was assessed at three levels: (1) the mid level of the striatum, (2) where the completed hippocampus first appeared and (3) the level where the ventral horn of the hippocampus just appears. The severity of tissue damage was scored in the striatum, cortex and the CA1-2, CA3, CA4 and dentate gyrus of the hippocampus. […]

## N[C@@H](CCC(=O)O)C(=O)O [Glutamate, L-glutamate, reference compound]
Cerebellar explants; glutamate 1 mM, compared to vehicle-treated controls
  loss of cerebellar neurons having neurites: ~80%

## CC(C)(C)OC(=O)[C@@H]1CC[C@@H]2CC=CCN(C(=O)OCc3ccccc3)CC(=O)N21
[1]; from C=CC[C@H]1CC[C@@H](C(=O)OC(C)(C)C)N1C(=O)CN(CC=C)C(=O)OCc1ccccc1, Grubbs I (bis(tricyclohexylphosphine)benzylideneruthenium dichloride), dichloromethane, 4.03 mM, 40.0 °C, 48.0 h
  ring closure, yield of all isomers: 46%

## CC(C)(C)OC(=O)[C@@H]1CC[C@H]2CC=CCN(C(=O)OCc3ccccc3)CC(=O)N21
[1]; from C=CC[C@@H]1CC[C@@H](C(=O)OC(C)(C)C)N1C(=O)CN(CC=C)C(=O)OCc1ccccc1, bis(tricyclohexylphosphine)benzylidineruthenium dichloride (Grubbs I), dichloromethane, 4.1 mM, 40.0 °C, 48.0 h
  ring closure, yield of all isomers: 42%

## O=C(O)[C@@H]1CCCCNCC(=O)N2CCC[C@H]2C(=O)N[C@H](C(=O)O)C1
[1]; from C=CC[C@H](C[C@H](NC(=O)[C@@H]1CCCN1C(=O)CN(CC=C)C(=O)OCc1ccccc1)C(=O)OCc1ccccc1)C(=O)OCc1ccccc1, Grubbs II generated in situ (bis(tricyclohexylphosphine)benzylideneruthenium dichloride + SIMes.HBF4/KOtBu), benzene, 2.27 mM, 45.0 °C, 65.0 h, 2 steps
  ring closure, yield of all isomers: 58%

## N[C@H]1CCCC[C@@H]2CC[C@@H](C(=O)N[C@@H](CCC(=O)O)C(=O)O)N2C1=O.O=C(O)C(F)(F)F [compound 48, (2S, 3′S, 8′R, 11′S) 2-{[(3′-Amino-1′-aza-2′-oxobicyclo[6.3.0]-undecyl)-11′-carbonyl]amino}-1,5-pentanedioic acid trifluoroacetate salt]
Cerebellar explants
  numbers of cells having neurites: significantly increased the numbers of cells having neurites in a dose-dependent manner
Cerebellar explants; glutamate 1 mM, trifluoroacetate salt
  recovery from / prevention of glutamate-induced neurotoxicity: significant recovery; also recorded: prevented glutamate-induced neurotoxicity

## O=C(O)C(F)(F)F.O=C(O)CC[C@H](NC(=O)[C@@H]1CC[C@@H]2CCCCNCC(=O)N21)C(=O)O [compound 68, (2S, 9′S, 12′S)-2-{[(1′,4′-Diaza-2′-oxobicyclo[7.3.0]dodecyl)-12′-carbonyl]amino}-1,5-pentanedioic acid trifluoroacetate]
[2]
  tissue damage (damage score) in striatum, cortex and hippocampus: significantly reduced the tissue damage in each brain region examined
Cerebellar explants
  numbers of cells having neurites: significantly increased the numbers of cells having neurites in a dose-dependent manner
Cerebellar explants; glutamate 1 mM
  recovery from / prevention of glutamate-induced neurotoxicity: significant recovery; also recorded: prevented glutamate-induced neurotoxicity
